According to paper PMC5510889 (Metallomics : integrated biometal science, 2017):

Tests used:
[1] = molecular target: T1, IsdG (Staphylococcus aureus, UniProt Q7A649); settings: cited from earlier work
[2] = molecular target: T2, IsdI (Staphylococcus aureus, UniProt Q7A827); test: Fluorescence-detected heme titration; type: binding
[3] = molecular target: T1, IsdG; test: Fluorescence-detected heme titration; type: binding
[4] = molecular target: T1, IsdG; settings: UV/Vis titration fitted to Michaelis-Menten model; cited from earlier work
[5] = molecular target: T2, IsdI; settings: UV/Vis titration fitted to Michaelis-Menten model; cited from earlier work
[6] = molecular target: T1, IsdG; test: Apomyoglobin competition assay; type: binding; settings: ratio of koff values, IsdG–heme vs IsdI–heme
[7] = molecular target: T2, IsdI; test: UV/Vis absorption-detected heme titration; type: binding
[8] = molecular target: T1, IsdG; test: UV/Vis absorption-detected heme titration; type: binding
[9] = molecular target: myoglobin; settings: cited from earlier work

T2 sequence (Q7A827 whole entry): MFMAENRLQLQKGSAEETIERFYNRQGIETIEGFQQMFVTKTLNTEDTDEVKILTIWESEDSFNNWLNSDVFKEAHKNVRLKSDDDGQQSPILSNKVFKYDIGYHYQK
T1 sequence (Q7A649 whole entry): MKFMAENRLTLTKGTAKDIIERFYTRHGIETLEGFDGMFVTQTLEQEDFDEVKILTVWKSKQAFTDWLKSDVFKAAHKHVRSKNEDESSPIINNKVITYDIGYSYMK

SMILES: [N-]=[N+]=[N-] [azide]
- mode of inhibition of IsdG [1]: uncompetitive inhibitors

SMILES: C=CC1=C(C)c2cc3[n-]c(cc4nc(cc5[n-]c(cc1n2)c(C)c5CCC(=O)O)C(CCC(=O)O)=C4C)c(C)c3C=C.[Fe+3] [heme]
- Kd [2]: 12.9 ± 1.3 nM
- Kd [3]: 1.4 ± 0.6 nM
- heme binding to IsdG tighter than heme binding to IsdI ([3]; ratio of fluorescence Kd values, IsdG vs IsdI): nine-fold
- Kd for heme, IsdG, as reported in the literature [4]: micromolar
- Kd for heme, IsdI, as reported in the literature [5]: micromolar
- rate of heme dissociation from IsdG–heme slower than from IsdI–heme [6]: four-fold
- Kd [7]: 15 ± 10 nM
- Kd [8]: 34 ± 20 nM
- Kd for heme dissociation from myoglobin [9]: femtomolar
